Source: Sander's compilation of Henry's law constants (doi:10.1021/ac00070a008)

Experiment: Henry solubility constant Hcp at 298.15 K (mol/(m3 Pa))
Conditions: reference: Li et al. (1993)

Point of comparison: CC(Cl)(Cl)Cl [1,1,1-trichloroethane], “Henry solubility constant Hcp” value 0.00057. Against it:
- CC(C)c1ccccc1 [(2-propyl)-benzene] — higher, 0.00089
- CCCCc1ccccc1 [butylbenzene] — higher, 0.00067
- c1ccccc1 [benzene] — higher, 0.0018
- Cc1ccccc1C [1,2-dimethylbenzene] — higher, 0.0021
- CCCOCCC [dipropyl ether] — higher, 0.0029
- CCCCCCCl [1-chlorohexane] — lower, 0.00031
- ClC(Cl)=C(Cl)Cl [tetrachloroethene] — higher, 0.00063
- Cc1ccccc1 [methylbenzene] — higher, 0.0016
- CCBr [bromoethane] — higher, 0.0013
- CCCCCCl [1-chloropentane] — lower, 0.00042
- CCCCCl [1-chlorobutane] — lower, 0.00053
- CCI [iodoethane] — higher, 0.0014
- CC(C)Cl [2-chloropropane] — lower, 0.00054
- Cc1cc(C)cc(C)c1 [1,3,5-trimethylbenzene] — higher, 0.0014
- CC(C)Br [2-bromopropane] — higher, 0.00084
- Cc1cccc(C)c1 [1,3-dimethylbenzene] — higher, 0.0015
- CCCBr [1-bromopropane] — higher, 0.0011
- CCCc1ccccc1 [propylbenzene] — higher, 0.00091
- ClCCl [dichloromethane] — higher, 0.0038
- CCC(C)Br (stereo unspecified) [2-bromobutane] — higher, 0.00077
- CCCI [1-iodopropane] — higher, 0.0011
- ClC=C(Cl)Cl [trichloroethene] — higher, 0.001
- CC(C)OC(C)C [diisopropyl ether] — higher, 0.0044
- CCc1ccccc1 [ethylbenzene] — higher, 0.0013
- Cc1ccc(C)cc1 [1,4-dimethylbenzene] — higher, 0.0014
